Assay results published in US10370343B2, “[6,6] Fused bicyclic HDAC8 inhibitors” (FORMA Therapeutics, Inc., priority 2015, dated 2019).

biological target: T1, Recombinant N-terminal GST tag full-length human HDAC8 (Homo sapiens, UniProt Q9BY41); assay: HDAC8 probe binding assay, time resolved fluorescence (TRF) format; conditions: compounds grouped by IC50 range (Table 2)
T1 construct: Recombinant N-terminal GST tag full-length human HDAC8; purchased SignalChem H90-30G-1000; host or cells: baculovirus in Sf9 insect cells
T1 sequence (Q9BY41 1-377): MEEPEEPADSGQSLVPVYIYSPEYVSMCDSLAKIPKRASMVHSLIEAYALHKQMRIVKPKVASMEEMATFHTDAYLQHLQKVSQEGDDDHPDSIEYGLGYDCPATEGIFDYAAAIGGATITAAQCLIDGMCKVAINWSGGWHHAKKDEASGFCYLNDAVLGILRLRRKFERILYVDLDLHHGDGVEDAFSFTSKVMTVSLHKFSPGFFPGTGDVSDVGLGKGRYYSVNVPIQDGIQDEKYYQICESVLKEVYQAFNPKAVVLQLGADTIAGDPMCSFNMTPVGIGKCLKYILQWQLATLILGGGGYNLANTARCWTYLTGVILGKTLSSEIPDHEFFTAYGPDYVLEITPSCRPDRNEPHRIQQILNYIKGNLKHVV
Experimental: The HDAC8 probe binding assay was performed using a time resolved fluorescence (TRF) assay format. Recombinant N-terminal GST tag full-length human HDAC8 was expressed and purified from baculovirus in Sf9 insect cells (SignalChem, #[…]-1000). […] Plates were incubated for 16 hours at room temperature before time resolved fluorescence was read on the Envision (Excitation at 340 nm, and Emission at 485 nm and 535 nm, Perkin Elmer). Data from HDAC8 Assays were reported as percent inhibition (inh) compared with control wells based on the following equation: % inh=1-((FLU-AveLow)/(AveHigh-AveLow)) where FLU=measured time resolved fluorescence. AveLow=average time resolved fluorescence of no enzyme control (n=32). AveHigh=average time resolved fluorescence of DMSO control (n=32). IC50 values were determined by curve fitting of the standard 4 parameter logistic fitting algorithm included in the Activity Base software package: IDBS XE Designer Model205. Data is fitted using the Levenburg Marquardt algorithm. Ranges of IC50 values for compounds of the invention are disclosed in Table 2: Table 2. provides the compounds arranged according to […] determined in a time resolved fluorescence (TRF) assay. The compounds are separated into four groups: […]

Row | SMILES | IC50
1 | O=C(NO)c1ccc2c(c1)N(Cc1ccc(N3CCOCC3)cc1)C(=O)CO2 [Compound I-177, N-hydroxy-4-(4-morpholinobenzyl)-3-oxo-3,4-dihydro-2H-benzo[b][1,4]oxazine-6-carboxamide] | 25 to 100 nM
2 | O=C(NO)c1ccc2c(c1)N(Cc1cnc(-c3ccccc3)o1)C(=O)CO2 [Compound I-178, N-hydroxy-3-oxo-4-((2-phenyloxazol-5-yl)methyl)-3,4-dihydro-2H-benzo[b][1,4]oxazine-6-carboxamide] | ≤ 25 nM
3 | O=C(NO)c1ccc2c(c1)N(Cc1coc(-c3ccccc3)n1)C(=O)CO2 [Compound I-179, N-hydroxy-3-oxo-4-((2-phenyloxazol-4-yl)methyl)-3,4-dihydro-2H-benzo[b][1,4]oxazine-6-carboxamide] | ≤ 25 nM
4 | O=C(NO)c1ccc2c(c1)N(Cc1cnn(-c3ccccc3)n1)C(=O)CO2 [Compound I-180, N-hydroxy-3-oxo-4-((2-phenyl-2H-1,2,3-triazol-4-yl)methyl)-3,4-dihydro-2H-benzo[b][1,4]oxazine-6-carboxamide] | ≤ 25 nM
5 | CC(C)(C)OC(=O)N1CCc2cc(CN3C(=O)COc4ccc(C(=O)NO)cc43)ccc2C1 [Compound I-181, tert-butyl 6-((6-(hydroxycarbamoyl)-3-oxo-2,3-dihydrobenzo[b][1,4]oxazin-4-yl)methyl)-3,4-dihydroisoquinoline-2(1H)-carboxylate] | ≤ 25 nM
6 | CN1CCCc2cc(CN3C(=O)COc4ccc(C(=O)NO)cc43)ccc21 [Compound I-182, N-hydroxy-4-((1-methyl-1,2,3,4-tetrahydroquinolin-6-yl)methyl)-3-oxo-3,4-dihydro-2H-benzo[b][1,4]oxazine-6-carboxamide] | 25 to 100 nM
7 | CN1C(=O)CCc2cc(CN3C(=O)COc4ccc(C(=O)NO)cc43)ccc21 [Compound I-183, N-hydroxy-4-((1-methyl-2-oxo-1,2,3,4-tetrahydroquinolin-6-yl)methyl)-3-oxo-3,4-dihydro-2H-benzo[b][1,4]oxazine-6-carboxamide] | ≤ 25 nM
8 | CC(=O)Nc1ccc(CN2C(=O)COc3ccc(C(=O)NO)cc32)cc1 [Compound I-186, 4-(4-acetamidobenzyl)-N-hydroxy-3-oxo-3,4-dihydro-2H-benzo[b][1,4]oxazine-6-carboxamide] | ≤ 25 nM
9 | O=C(NO)c1ccc2c(c1)N(Cc1ccc(-n3ccnc3)cc1)C(=O)CO2 [Compound I-187, 4-(4-(1H-imidazol-1-yl)benzyl)-N-hydroxy-3-oxo-3,4-dihydro-2H-benzo[b][1,4]oxazine-6-carboxamide] | ≤ 25 nM
10 | O=C(NO)c1ccc2c(c1)N(Cc1ccc(N3CCCC3=O)cc1)C(=O)CO2 [Compound I-188, N-hydroxy-3-oxo-4-(4-(2-oxopyrrolidin-1-yl)benzyl)-3,4-dihydro-2H-benzo[b][1,4]oxazine-6-carboxamide] | 25 to 100 nM
11 | CN(C)S(=O)(=O)c1ccc(CN2C(=O)COc3ccc(C(=O)NO)cc32)cc1 [Compound I-189, 4-(4-(N,N-dimethylsulfamoyl)benzyl)-N-hydroxy-3-oxo-3,4-dihydro-2H-benzo[b][1,4]oxazine-6-carboxamide] | ≤ 25 nM
12 | O=C(NO)c1ccc2c(c1)N(Cc1ccc(C(=O)N3CCOCC3)cc1)C(=O)CO2 [Compound I-190, N-hydroxy-4-(4-(morpholine-4-carbonyl)benzyl)-3-oxo-3,4-dihydro-2H-benzo[b][1,4]oxazine-6-carboxamide] | 25 to 100 nM
13 | O=C(NO)c1ccc2c(c1)N(Cc1ncc(-c3ccccc3)o1)C(=O)CO2 [Compound I-191, N-hydroxy-3-oxo-4-((5-phenyloxazol-2-yl)methyl)-3,4-dihydro-2H-benzo[b][1,4]oxazine-6-carboxamide] | ≤ 25 nM
14 | O=C(NO)c1ccc2c(c1)N(Cc1ccc(C(=O)N3CCCC3)cc1)C(=O)CO2 [Compound I-192, N-hydroxy-3-oxo-4-(4-(pyrrolidine-1-carbonyl)benzyl)-3,4-dihydro-2H-benzo[b][1,4]oxazine-6-carboxamide] | 25 to 100 nM
15 | O=C(NO)c1ccc2c(c1)N(Cc1ncn(-c3ccccc3)n1)C(=O)CO2 [Compound I-193, N-hydroxy-3-oxo-4-((1-phenyl-1H-1,2,4-triazol-3-yl)methyl)-3,4-dihydro-2H-benzo[b][1,4]oxazine-6-carboxamide] | 25 to 100 nM
16 | COCCOc1ccc(CN2C(=O)COc3ccc(C(=O)NO)cc32)cc1 [Compound I-196, N-hydroxy-4-(4-(2-methoxyethoxy)benzyl)-3-oxo-3,4-dihydro-2H-benzo[b][1,4]oxazine-6-carboxamide] | ≤ 25 nM
17 | COCCOc1cccc(CN2C(=O)COc3ccc(C(=O)NO)cc32)c1 [Compound I-197, N-hydroxy-4-(3-(2-methoxyethoxy)benzyl)-3-oxo-3,4-dihydro-2H-benzo[b][1,4]oxazine-6-carboxamide] | ≤ 25 nM
18 | O=C(NO)c1ccc2c(c1)N(CC1CCN(c3ccccc3)CC1)C(=O)CO2 [Compound I-198, N-hydroxy-3-oxo-4-((1-phenylpiperidin-4-yl)methyl)-3,4-dihydro-2H-benzo[b][1,4]oxazine-6-carboxamide] | 25 to 100 nM
19 | O=C(NO)c1ccc2c(c1)N(Cc1c[nH]c3ccccc13)C(=O)CO2 [Compound I-200, 4-((1H-indol-3-yl)methyl)-N-hydroxy-3-oxo-3,4-dihydro-2H-benzo[b][1,4]oxazine-6-carboxamide] | 25 to 100 nM
20 | N#Cc1c(CN2C(=O)COc3ccc(C(=O)NO)cc32)cn2ccccc12 [Compound I-201, 4-((1-cyanoindolizin-2-yl)methyl)-N-hydroxy-3-oxo-3,4-dihydro-2H-benzo[b][1,4]oxazine-6-carboxamide] | ≤ 25 nM
21 | O=C(NO)c1ccc2c(c1)N(Cc1nc(-c3ccccc3)co1)C(=O)CO2 [Compound I-202, N-hydroxy-3-oxo-4-((4-phenyloxazol-2-yl)methyl)-3,4-dihydro-2H-benzo[b][1,4]oxazine-6-carboxamide] | ≤ 25 nM
22 | O=C(NO)c1ccc2c(c1)N(Cc1n[nH]c3ccccc13)C(=O)CO2 [Compound I-203, 4-((1H-indazol-3-yl)methyl)-N-hydroxy-3-oxo-3,4-dihydro-2H-benzo[b][1,4]oxazine-6-carboxamide] | 25 to 100 nM
23 | O=C(NO)c1ccc2c(c1)N(Cc1cc(-c3ccccc3)[nH]n1)C(=O)CO2 [Compound I-204, N-hydroxy-3-oxo-4-[(5-phenyl-1H-pyrazol-3-yl)methyl]-3,4-dihydro-2H-1,4-benzoxazine-6-carboxamide] | ≤ 25 nM
24 | O=C(NO)c1ccc2c(c1)N(Cc1cn(-c3ccccc3)cn1)C(=O)CO2 [Compound I-205, N-hydroxy-3-oxo-4-((1-phenyl-1H-imidazol-4-yl)methyl)-3,4-dihydro-2H-benzo[b][1,4]oxazine-6-carboxamide] | 25 to 100 nM
25 | O=C(NO)c1ccc2c(c1)N(Cc1cnn(C3CC3)c1)C(=O)CO2 [Compound I-206, 4-((1-cyclopropyl-1H-pyrazol-4-yl)methyl)-N-hydroxy-3-oxo-3,4-dihydro-2H-benzo[b][1,4]oxazine-6-carboxamide] | 25 to 100 nM
26 | Cc1cnc2sc(CN3C(=O)COc4ccc(C(=O)NO)cc43)nc2c1 [Compound I-207, N-hydroxy-4-((6-methylthiazolo[5,4-b]pyridin-2-yl)methyl)-3-oxo-3,4-dihydro-2H-benzo[b][1,4]oxazine-6-carboxamide] | ≤ 25 nM
